# According to patent US10294214B2, “Positive allosteric modulators of human melanocortin-4 receptor” (Vanderbilt University, priority 2016, dated 2019):
# “Also recorded” adds a separate entry of the source.
# Assays:
# Y receptor = experiment: Ussing chamber assay, PYY responses in mouse colon mucosa; details: PYY 10 nM; for Effect of antagonist on PYY responses: HS014 30 nM, 300 nM BIBO3304 plus 1 μM BIIE0246 in combination; for Effect on PYY responses: Example 3 at 200 nM or 1 μM
# Method: (§1) FIGS. 2A-2I contain data on the characterization of hMC4R PAMs Examples 1, 2, and 3. FIGS. 2A, 2B, and 2C show structures of Examples 1-3, and the affect of Examples 1-3 on the α-MSH dose-response curve at the hMC4R, as determined using the Lance assay. Insets show the concentration-response effect as a function of the fold shift on the α-MSH concentration response curve. […] After α-MSH responses had waned all tissues received PYY (10 nM) to verify residual Y receptor anti-secretory activity. Basal Isc values are indicated to the left of each trace from an exposed area of 0.14 cm^2. Vertical arrows show the timepoint at which α-MSH Isc responses were recorded. […] Each value is the mean±1 SEM with n values in parentheses. ** P<0.01 using one-way ANOVA with Dunnett's post-test.
# (§2) GI tissue from adult (12-20 week old) male C57BL/6J mice were dissected free of overlying smooth muscle and mucosae placed between 2 halves of Ussing chambers exposing an area of 0.14 cm^2. Mucosae were bathed both sides with Krebs-Henseleit (KH) buffer of following composition (in mM: 117 NaCl, 24.8 NaHCO3, 4.7 KCl, 1.2 MgSO4, 1.2 KH2PO4, 2.5 CaCl2 and 11.1 D-glucose) aerated with 95% O2/5% CO2 (pH 7.4) and voltage-clamped at 0 mV as described in detail previously (Cox et al., 2001; Cox and Tough, 2002). MC4R activity in mouse colonic epithelium was then characterized. Mouse mucosae were pretreated with vehicle or PAM compounds, then with secretagogue, VIP (10 nM, basolateral), and once elevated ISC had reached its peak and was declining at a constant rate, α-MSH was added to the basolateral reservoir to determine responses.
# (§3) ISC responses in μA are expressed as the mean±SEM per unit area (cm2). Single comparisons (using GraphPad Prism) were performed using Student's unpaired t-test while multiple comparisons utilized 1-way ANOVA with Dunnett's post test and P≤0.05 were considered statistically significant.
# native L cell MC4R = native L cell MC4R (Mus musculus (Mouse), UniProt P56450); experiment: Ussing chamber assay, α-MSH inhibition of VIP-elevated Isc in mouse colon mucosa; details: for Effect of antagonist on α-MSH inhibition of Isc potentiated by 1 μM Example 3: HS014 30 nM, 300 nM BIBO3304 plus 1 μM BIIE0246 in combination; for Effect of antagonist on α-MSH inhibition of Isc potentiated by 1 μM Example 3 / α-MSH response (inhibition of Isc) after pretreatment: α-MSH 300 nM; for Effect of compound alone on basal Isc: basolateral, Example 3 at 200 nM or 1 μM, vs vehicle
# Method: as §1, §2, §3
# hMC4R [1] = biological target: T1, hMC4R (Homo sapiens (Human), UniProt P32245); experiment: LANCE cAMP assay, hMC4R PAM; format: cell-based; details: for hMC4R PAM LANCE pEC50 Mean: HEK293 cells stably expressing the hMC4R, α-MSH at an EC20 dose; for Emax: read-out: % of αMSH maximal response
# Method: Analysis of pharmacological properties of compounds was performed using the LANCE cAMP kit (Perkin Elmer). HEK293 cells stably expressing the hMC4R were treated with PAM compounds at doses indicated, then incubated with an Alexa Fluor 647-labeled antibody in stimulation buffer according to manufacturer's instructions for 30 min at RT. Next, α-MSH was added (at an EC20 dose or at doses indicated for concentration-response curves), and plates were incubated for 15 minutes at RT, followed by the addition of 10 μL of detection mix. Plates were then incubated for 30 minutes at RT and read on a Viewlux (Perkin Elmer) using 618 and 671 nm emission filters. IBMX was not included in the assay.
# C57BL/6 mice = experiment: Inhibition of fast-induced refeeding in the mouse; format: in vivo; details: single i.p. dose 5 mg/kg; overnight fasted mice; food intake after two and six hours
# Method: FIG. 4 contains data from assays of inhibition of food intake in the mouse by MC4R PAM Example 3. Nine to ten week old C57BL/6 mice were fasted overnight (15 to 17 hours) and re-feeding was monitored the following day after a single i.p. dose of Example 3 (5 mg/kg) or vehicle (10% Tween 80, 5% DMSO v/v). Normalized food intake (food consumed in grams per 100 grams of body weight) per treatment group is shown in the top graphs after two hours (top left) and six hours (top right) of onset of re-feeding phase. Body weight changes for two and six hours are shown in the bottom left and right panels respectively. p values are noted on each graph and were determined by unpaired t tests. Significance was set to p values <0.05.
# [2] = biological target: human β2-adrenergic receptor (Homo sapiens (Human), UniProt P07550); experiment: pGLO cAMP assay, counterscreen; format: cell-based; details: Isop EC20
# Method: (§4) Drug screening for identification of hits and initial characterization of MC4R PAM compounds were performed using the pGLO assay, as described previously (Pantel J, et al., (2011) Development of a high throughput screen for allosteric modulators of melanocortin-4 receptor signaling using a real time cAMP assay. Eur J Pharmacol 660:139-147. HEK293 cells stably expressing the hMC4R or the hB2ADR with GloSensor (Promega) were plated at a density of 10,000 to 15,000 cells per well on Poly-D-Lysin coated black optical bottom 384 well plates in MEM supplemented with 2% serum. The next day, cells were loaded with the cAMP Glo reagent at a 2% concentration in CO2-independent media for 2 hours at 37° C. […]
# (§5) HEK293 cells stably expressing the hMC4R or the β-adrenergic receptor with the p-Promega pGlo luciferase cAMP reporter were plated at a density of 10,000 to 15,000 cells per well on Poly-D-Lysin coated black optical bottom 384 well plates in MEM supplemented with 2% serum. The next day, cells were loaded with the p-Glo substrate at a 2% concentration in CO2-independent media for 2 hours at 37° C. cAMP concentration in cells were measured as a function of luminescence over time using a Hamamatsu FDSS 6000 plate reader. Basal luminescence were measured for 5 minutes followed by injection of 1 μM of the library compounds. […]
# hMC4R [3] = biological target: T1, hMC4R; experiment: pGLO cAMP assay, PAM HTS primary screen; format: cell-based; details: 1 μM of library compound
# Method: as §4, §5
# T1 sequence (P32245 whole entry): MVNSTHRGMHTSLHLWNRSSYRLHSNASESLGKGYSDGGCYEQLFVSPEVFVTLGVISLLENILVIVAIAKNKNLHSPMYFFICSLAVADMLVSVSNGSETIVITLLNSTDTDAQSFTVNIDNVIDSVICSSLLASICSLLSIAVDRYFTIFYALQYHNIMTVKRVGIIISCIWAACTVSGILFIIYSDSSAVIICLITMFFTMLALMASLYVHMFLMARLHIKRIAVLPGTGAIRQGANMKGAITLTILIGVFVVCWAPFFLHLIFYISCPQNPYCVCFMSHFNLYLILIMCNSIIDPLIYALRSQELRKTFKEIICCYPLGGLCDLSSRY
# Chain of native L cell MC4R (P56450 whole entry): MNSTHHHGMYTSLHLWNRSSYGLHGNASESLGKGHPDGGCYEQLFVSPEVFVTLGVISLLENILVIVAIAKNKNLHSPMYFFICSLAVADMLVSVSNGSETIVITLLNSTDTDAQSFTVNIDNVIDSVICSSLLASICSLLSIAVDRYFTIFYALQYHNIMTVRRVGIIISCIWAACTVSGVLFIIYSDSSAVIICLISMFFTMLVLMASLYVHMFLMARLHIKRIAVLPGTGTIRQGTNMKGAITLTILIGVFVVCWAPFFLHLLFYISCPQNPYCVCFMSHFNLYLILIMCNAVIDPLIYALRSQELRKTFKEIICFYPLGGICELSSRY
# Chain of human β2-adrenergic receptor (P07550 whole entry): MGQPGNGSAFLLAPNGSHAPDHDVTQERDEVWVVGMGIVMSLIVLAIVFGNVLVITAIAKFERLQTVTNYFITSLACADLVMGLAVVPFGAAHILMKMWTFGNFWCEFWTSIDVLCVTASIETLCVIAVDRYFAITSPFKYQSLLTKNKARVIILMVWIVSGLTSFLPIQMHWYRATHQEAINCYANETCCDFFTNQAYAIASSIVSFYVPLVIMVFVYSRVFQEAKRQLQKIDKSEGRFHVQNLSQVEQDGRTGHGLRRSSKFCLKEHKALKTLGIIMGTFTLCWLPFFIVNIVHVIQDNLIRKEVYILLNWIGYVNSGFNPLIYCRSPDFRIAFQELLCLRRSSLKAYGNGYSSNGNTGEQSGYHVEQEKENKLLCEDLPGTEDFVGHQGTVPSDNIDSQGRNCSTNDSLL
compound,measurement,setting,value
"NC(=O)NCc1ccc(CNC(=O)[C@@H](CCCN=C(N)N)NC(=O)C(c2ccccc2)c2ccccc2)cc1 [BIBO3304, reference compound]",Effect of antagonist on PYY responses,Y receptor,predictably abolished
same,Effect of antagonist on α-MSH inhibition of Isc potentiated by 1 μM Example 3,native L cell MC4R,abolished
"N=C(N)NCCC[C@H](NC(=O)CC1(CC(=O)N2CCN(C3c4ccccc4NC(=O)c4ccccc43)CC2)CCCC1)C(=O)NCCn1c(=O)n(-c2ccccc2)n(-c2ccccc2)c1=O (stereo partly shown) [BIIE0246, reference compound]",Effect of antagonist on PYY responses,Y receptor,predictably abolished
same,Effect of antagonist on α-MSH inhibition of Isc potentiated by 1 μM Example 3,native L cell MC4R,abolished
"CC(C)(C)C1CCN(CC(=O)Nc2c(C(=O)C3CC3)[nH]c3ccccc23)CC1 [Example 1, 2-(4-(tert-butyl)piperidin-1-yl)-N-(2-(cyclopropanecarbonyl)-1H-indol-3-yl)acetamide]",Effect on PYY responses,Y receptor,unaffected
same,α-MSH response (inhibition of Isc) after pretreatment,native L cell MC4R; 10 μM pretreatment,potentiated significantly
same,Effect of compound alone on basal Isc,native L cell MC4R,not significantly different to vehicle controls
same,"MC4R PAM activity on α-MSH induced, PYY mediated short circuit current inhibition",native L cell MC4R; mouse colonic epithelium,exhibited MC4R PAM activity
same,hMC4R PAM LANCE pEC50 Mean,hMC4R [1],6.2
same,EC50,hMC4R [1]; in vitro characterisation,398 nM
same,Emax,hMC4R [1]; in vitro characterisation,83%
"O=C(CN1CCC2(CCCC2)CC1)Nc1c(C(=O)C2CC2)[nH]c2ccccc12 [Example 2, N-(2-(cyclopropanecarbonyl)-1H-indol-3-yl)-2-(8-azaspiro[4.5]decan-8-yl)acetamide]",Effect on PYY responses,Y receptor,unaffected
same,α-MSH response (inhibition of Isc) after pretreatment,native L cell MC4R; 3 μM pretreatment,potentiated significantly
same,Effect of compound alone on basal Isc,native L cell MC4R,not significantly different to vehicle controls
same,"MC4R PAM activity on α-MSH induced, PYY mediated short circuit current inhibition",native L cell MC4R; mouse colonic epithelium,exhibited MC4R PAM activity
same,hMC4R PAM LANCE pEC50 Mean,hMC4R [1],6.3
same,pEC50,hMC4R [1]; in vitro characterisation,6.3
same,Emax,hMC4R [1]; in vitro characterisation,80%
"COC(=O)c1[nH]c2ccccc2c1NC(=O)CN1CCC(C2CCCCC2)CC1 [Example 3, methyl 3-(2-(4-cyclohexylpiperidin-1-yl)acetamido)-1H-indole-2-carboxylate]",Effect on PYY responses,Y receptor,did not modulate the activity of PYY; also recorded: unaffected
same,"Anorexigenic activity, fast-induced refeeding",C57BL/6 mice,"small, but statistically significant anorexigenic activity"
same,α-MSH response (inhibition of Isc) after pretreatment,"native L cell MC4R; 1 μM pretreatment, vs vehicle controls",significantly increased; also recorded: significantly potentiated
same,Effect of compound alone on basal Isc,native L cell MC4R,no activity on its own; also recorded: not significantly different from vehicle
same,"MC4R PAM activity on α-MSH induced, PYY mediated short circuit current inhibition",native L cell MC4R; mouse colonic epithelium,nearly tripled the activity of α-MSH
same,EC50,"native L cell MC4R; mouse colonic epithelium, read-out: EC50 for potentiation of α-MSH induced short circuit current inhibition",~200 nM
same,hMC4R PAM LANCE pEC50 Mean,hMC4R [1],6.7
same,pEC50,hMC4R [1]; in vitro characterisation,6.7
same,Emax,hMC4R [1]; in vitro characterisation,102%
CC1COCCN1c1ccc2[nH]c(C(=O)C3CC3)c(NC(=O)CN3CCCC(C)(C)C3)c2c1 (stereo not shown) [Example 76],hMC4R PAM LANCE pEC50 Mean,hMC4R [1],5.7
CC(=O)c1[nH]c2ccccc2c1NC(=O)CN1CCC(OC2CCCCC2)CC1 [Example 77],hMC4R PAM LANCE pEC50 Mean,hMC4R [1],5.8
COC(=O)c1[nH]c2ccc(Cl)cc2c1NC(=O)C(C)N1CCC(Cc2ccccc2)CC1 (stereo not shown) [Example 78],hMC4R PAM LANCE pEC50 Mean,hMC4R [1],6
COC(=O)c1[nH]c2ccc(Br)cc2c1NC(=O)CN1CCCC(C)(C)C1 [Example 79],hMC4R PAM LANCE pEC50 Mean,hMC4R [1],6.1
COC(=O)c1[nH]c2ccc(Cl)cc2c1NC(=O)CN1CCCC(C)(C)C1 [Example 80],hMC4R PAM LANCE pEC50 Mean,hMC4R [1],6
"COc1cc(-c2nc(NCc3ccco3)c3ccccc3n2)cc(OC)c1OC [VUO127431, N-(furan-2-ylmethyl)-2-(3,4,5-trimethoxyphenyl)quinazolin-4-amine]",Effect on β2-adrenergic-receptor signaling (cAMP),[2],no significant effect on β2-adrenergic-receptor signaling
same,Effect on hMC4R signaling (cAMP) with α-MSH EC20,hMC4R [3],enhanced hMC4R signaling
